Laboratory results from US20240067632A1, “WEE1 Degrading Compounds and Uses Thereof” (Bristol-Myers Squibb Company, priority 2022, published 2024).

What was measured:
WEE1 = target: T1, WEE1 (Homo sapiens, UniProt P30291+Q96SW2); assay: WEE1-ePL degradation assay (LentiX-WEE1-ePL-GSPT1-ND cells, InCELL Hunter luminescence, 4 h); assay type: cell-based; settings: 293T-LentiX WEE1-ePL cells; for 293T-LentiX WEE1-ePL Degradation 4 hr (Ymin): lower limit of the fit (0 = luciferase inhibitor, Ymax = DMSO control); for DC50: read-out: 293T-LentiX WEE1-ePL Degradation 4 hr (EC50)
T1 construct: C-terminal ePL-tagged (DiscoverX, Fremont, CA) full-length WEE1 expression construct; expressed in transfected cells; host or cells: LentiX-HEK293T (Invitrogen), lentiviral transduction; co-expressing GSPT1-GN (G576N, lacking the first 158 amino acids)
Summary of the method: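 Degradation EC50 was fitted by a four-parameter logistic model, with the upper limit taken from DMSO wells. Luminescence was read with InCELL Hunter reagent after 30 min at room temperature, following a 4 h, 37° C exposure of 2500 cells/well. Cells were LentiX-HEK293T carrying ePL-tagged full-length WEE1, dosed in 10 points (3-fold) from 1 or 10 uM.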

MKN45 cells = assay: MKN45 cell proliferation assay (Cell-Titer-Glo, 120 h); assay type: cell-based; settings: for EC50: Homo sapiens, MKN-45, 120 h, Cell-Titer-Glo, growth inhibition, read-out: MKN45 Cell Prolif. 120 hr (EC50); for MKN45 Cell Prolif. 120 hr (Ymin-Obs): minimal percent of DMSO control observed in the concentrations tested
Description: MKN45 cells were obtained from Celgene internal cell banks and cultured in RPMI complete media (RPMI-1640, 1× Penicillin/Streptomycin, 1× glutamine, 1× Sodium Pyruvate, Non-essential Amino Acids, 10% Fetal Bovine serum, all component from Thermo-Fisher). Compounds were dispensed into 384-well plates using an HP DE300 compound printer in triplicate with 8 compounds on each plate. For each compound, a 10-point dose response was printed at half-log dilutions starting at either 1 uM or 10 uM. The DMSO concentration was kept constant for a final assay concentration of 0.1% per well assuming 50 ul final media volume. Compound plates were sealed and frozen at −20 C until use.
For each assay batch, compound plates were thawed and allowed to reach room temperature, and cells were seeded at 400 cells per well in 50 ul complete RPMI media. After 120 hours of incubation at 37 C and 5% CO2, cells were lysed by addition of 25 μL of Cell-Titer-Glo Reagent (Promega Corporation, Madison, WI), as per manufacturer's instructions, protected from light, shaken for 45 minutes, and total luminescence read by a Perkin Elmer Envision plate reader. Total luminescence signal is linearly correlated with cell number remaining in the well.
Luminescence data was processed per plate by subtracting reagent-only “blank” well luminescence from all measured values and calculating a percent of DMSO control value for each treatment well. Then, to determine the half-maximal effective concentration (EC50) values for cell growth inhibition, a four parameter logistic model was fit to the data for each DMSO-normalized compound: Sigmoidal Dose-Response Model: (FIT=(A+((B−A)/1+((C/x)^D)))) where C is the inflection point (EC50), D is the Hill slope, and A and B are the low and high limits of the fit respectively. The lower limit of the fit (value A) is referred to as Ymin-calculated. The minimal percent of DMSO control that is observed in the concentrations tested for each compound is labeled as “Ymin-obs”, and was recorded and reported in the tables. Sigmoidal fit curves were processed and evaluated using Activity Base (IDBS, Alameda, CA).

| 293T-LentiX WEE1-ePL Degradation 4 hr (Ymin) (WEE1) | DC50 (WEE1) [nM] | EC50 (MKN45 cells) [nM] | Compound | MKN45 Cell Prolif. 120 hr (Ymin-Obs) (MKN45 cells) |
| --- | --- | --- | --- | --- |
| 30 | 27.3 | 252 | O=C1CCC(N2Cc3cc(O[C@H]4CCN(Cc5cnc6c(c5)CCOC6)C4)ccc3C2=O)C(=O)N1 (stereo partly drawn) [3-(1-oxo-5-{[(3S)-1-({5H,6H,8H-pyrano[3,4-b]pyridin-3-yl}methyl)pyrrolidin-3-yl]oxy}-2,3-dihydro-1H-isoindol-2-yl)piperidine-2,6-dione] | 8.89 |
| 51 | 62.7 | 1280 | O=C1CCC(N2Cc3cc(O[C@H]4CCN(Cc5ccnc6c5CCOC6)C4)ccc3C2=O)C(=O)N1 (stereo partly drawn) [3-(1-oxo-5-{[(3S)-1-({5H,6H,8H-pyrano[3,4-b]pyridin-4-yl}methyl)pyrrolidin-3-yl]oxy}-2,3-dihydro-1H-isoindol-2-yl)piperidine-2,6-dione] | 56.39 |
| 35 | 39.9 | 456 | O=C1CCC(N2Cc3cc(O[C@H]4CCN(Cc5cnc6c(c5)COCC6)C4)ccc3C2=O)C(=O)N1 (stereo partly drawn) [3-(1-oxo-5-{[(3S)-1-({5H,7H,8H-pyrano[4,3-b]pyridin-3-yl}methyl)pyrrolidin-3-yl]oxy}-2,3-dihydro-1H-isoindol-2-yl)piperidine-2,6-dione] | 11.67 |
| 28 | 1.99 | 3.39 | O=C1CCC(N2Cc3cc(O[C@H]4CCN(Cc5cc6cc([C@H]7CCOC7)ccc6cn5)C4)ccc3C2=O)C(=O)N1 (stereo partly drawn) [3-(1-oxo-5-{[(3S)-1-({6-[(3R)-oxolan-3-yl]isoquinolin-3-yl}methyl)pyrrolidin-3-yl]oxy}-2,3-dihydro-1H-isoindol-2-yl)piperidine-2,6-dione] | 6.69 |
| 28 | 5.38 | 12.9 | O=C1CCC(N2Cc3cc(O[C@H]4CCN(Cc5cc6cc([C@@H]7CCOC7)ccc6cn5)C4)ccc3C2=O)C(=O)N1 (stereo partly drawn) [3-(1-oxo-5-{[(3S)-1-({6-[(3S)-oxolan-3-yl]isoquinolin-3-yl}methyl)pyrrolidin-3-yl]oxy}-2,3-dihydro-1H-isoindol-2-yl)piperidine-2,6-dione] | 5.87 |
| 28 | 1.41 | 2.96 | O=C1CCC(N2Cc3cc(O[C@H]4CCN(Cc5cc6ccc([C@H]7CCOC7)cc6cn5)C4)ccc3C2=O)C(=O)N1 (stereo partly drawn) [3-(1-oxo-5-{[(3S)-1-({7-[(3R)-oxolan-3-yl]isoquinolin-3-yl}methyl)pyrrolidin-3-yl]oxy}-2,3-dihydro-1H-isoindol-2-yl)piperidine-2,6-dione] | 8.5 |
| 30 | 1.66 | 1.84 | O=C1CCC(N2Cc3cc(O[C@H]4CCN(Cc5cc6ccc([C@@H]7CCOC7)cc6cn5)C4)ccc3C2=O)C(=O)N1 (stereo partly drawn) [3-(1-oxo-5-{[(3S)-1-({7-[(3S)-oxolan-3-yl]isoquinolin-3-yl}methyl)pyrrolidin-3-yl]oxy}-2,3-dihydro-1H-isoindol-2-yl)piperidine-2,6-dione] | 7.635 |
| 79 | 3330 | > 10000 | O=C1CCC(N2Cc3cc(O[C@H]4CCN(Cc5ccc6c(c5)CCCN6)C4)ccc3C2=O)C(=O)N1 (stereo partly drawn) [3-(1-oxo-5-{[(3S)-1-[(1,2,3,4-tetrahydroquinolin-6-yl)methyl]pyrrolidin-3-yl]oxy}-2,3-dihydro-1H-isoindol-2-yl)piperidine-2,6-dione] | 93.175 |
| 37.28 | 112 | 1710 | O=C1CCC(N2Cc3cc(O[C@H]4CCN(Cc5cc6ccccc6[nH]c5=O)C4)ccc3C2=O)C(=O)N1 (stereo partly drawn) [3-(1-oxo-5-{[(3S)-1-[(2-oxo-1,2-dihydroquinolin-3-yl)methyl]pyrrolidin-3-yl]oxy}-2,3-dihydro-1H-isoindol-2-yl)piperidine-2,6-dione] | 30.3825 |
| 40.56 | 74.7 | 610 | O=C1CCC(N2Cc3cc(O[C@H]4CCN(Cc5ccc6[nH]c(=O)ccc6c5)C4)ccc3C2=O)C(=O)N1 (stereo partly drawn) [3-(1-oxo-5-{[(3S)-1-[(2-oxo-1,2-dihydroquinolin-6-yl)methyl]pyrrolidin-3-yl]oxy}-2,3-dihydro-1H-isoindol-2-yl)piperidine-2,6-dione] | 17.75 |
| 55 | 28.8 | > 10000 | O=C1CCC(N2Cc3cc(O[C@H]4CCN(Cc5ccc6ccc(=O)oc6c5)C4)ccc3C2=O)C(=O)N1 (stereo partly drawn) [3-(1-oxo-5-{[(3S)-1-[(2-oxo-2H-chromen-7-yl)methyl]pyrrolidin-3-yl]oxy}-2,3-dihydro-1H-isoindol-2-yl)piperidine-2,6-dione] | 85.765 |
| 80 | – | > 10000 | O=C1CCC(N2Cc3cc(O[C@H]4CCN(Cc5ccc6c(c5)OC(=O)CN6)C4)ccc3C2=O)C(=O)N1 (stereo partly drawn) [3-(1-oxo-5-{[(3S)-1-[(2-oxo-3,4-dihydro-2H-1,4-benzoxazin-7-yl)methyl]pyrrolidin-3-yl]oxy}-2,3-dihydro-1H-isoindol-2-yl)piperidine-2,6-dione] | 90.28 |
| 38 | 6.94 | 23 | O=C1CCC(N2Cc3cc(O[C@H]4CCN(Cc5ccnc(-c6ccccc6)c5)C4)ccc3C2=O)C(=O)N1 (stereo partly drawn) [3-(1-oxo-5-{[(3S)-1-[(2-phenylpyridin-4-yl)methyl]pyrrolidin-3-yl]oxy}-2,3-dihydro-1H-isoindol-2-yl)piperidine-2,6-dione] | 9.19 |
| 30 | 5.36 | 4.2 | CO[C@H]1CC[C@](C)(Nc2ccc3cc(CN4CC[C@H](Oc5ccc6c(c5)CN(C5CCC(=O)NC5=O)C6=O)C4)ccc3n2)CC1 (stereo partly drawn) [3-(1-oxo-5-{[(3S)-1-[(2-{[(1r,4r)-4-methoxy-1-methylcyclohexyl]amino}quinolin-6-yl)methyl]pyrrolidin-3-yl]oxy}-2,3-dihydro-1H-isoindol-2-yl)piperidine-2,6-dione] | 8.155 |
| 32.5 | 6.28 | 5.05 | CO[C@H]1CC[C@H](Nc2ccc3cc(CN4CC[C@H](Oc5ccc6c(c5)CN(C5CCC(=O)NC5=O)C6=O)C4)ccc3n2)CC1 (stereo partly drawn) [3-(1-oxo-5-{[(3S)-1-[(2-{[(1r,4r)-4-methoxycyclohexyl]amino}quinolin-6-yl)methyl]pyrrolidin-3-yl]oxy}-2,3-dihydro-1H-isoindol-2-yl)piperidine-2,6-dione] | 8.26 |
| 30.67 | 11.5 | 9.05 | CO[C@H]1CC[C@H](Oc2ccc3cc(CN4CC[C@H](Oc5ccc6c(c5)CN(C5CCC(=O)NC5=O)C6=O)C4)ccc3n2)CC1 (stereo partly drawn) [3-(1-oxo-5-{[(3S)-1-[(2-{[(1r,4r)-4-methoxycyclohexyl]oxy}quinolin-6-yl)methyl]pyrrolidin-3-yl]oxy}-2,3-dihydro-1H-isoindol-2-yl)piperidine-2,6-dione] | 8.57 |
| 26 | 3.41 | 0.882 | CO[C@H]1CC[C@@](C)(Nc2ccc3cc(CN4CC[C@H](Oc5ccc6c(c5)CN(C5CCC(=O)NC5=O)C6=O)C4)ccc3n2)CC1 (stereo partly drawn) [3-(1-oxo-5-{[(3S)-1-[(2-{[(1s,4s)-4-methoxy-1-methylcyclohexyl]amino}quinolin-6-yl)methyl]pyrrolidin-3-yl]oxy}-2,3-dihydro-1H-isoindol-2-yl)piperidine-2,6-dione] | 8.44 |
